The values below come from PMC6261295 (Journal of chromatography. A, 2018).

Assay [1] deals with T1, Neuraminidase (from Clostridium perfringens, Type V) immobilized on magnetic beads (NA-MBs) (Clostridium perfringens, UniProt A0A0H2YQR1). Briefly: biochemical. To be noted: for inhibition at 50 µM: 0.05 h, read-out: Inhibitory ratio (%).
Assay [2] concerns NA. To be noted: cited from earlier work; for binder / non-binder for NA: known active/inactive compounds for NA.
Assay [3] concerns the target T1, Neuraminidase (from Clostridium perfringens, Type V) immobilized on magnetic beads (NA-MBs). The format is biochemical. The note with it: 40 μM MUNANA, 37 °C, 3 min.
Assay [4] shares this target. The format is binding. To be noted: 5.0 mg/mL ethyl acetate extract fraction of Flos Lonicerae, 37 °C, 1 h.
The target is the same in assay [5]. Format: biochemical.
Assay [6] concerns NA. To be noted: read-out: IC50, literature reported value; cited from earlier work.

Counter-ions that a name gives are not always drawn.

T1 sequence (A0A0H2YQR1 42-694 limits assumed): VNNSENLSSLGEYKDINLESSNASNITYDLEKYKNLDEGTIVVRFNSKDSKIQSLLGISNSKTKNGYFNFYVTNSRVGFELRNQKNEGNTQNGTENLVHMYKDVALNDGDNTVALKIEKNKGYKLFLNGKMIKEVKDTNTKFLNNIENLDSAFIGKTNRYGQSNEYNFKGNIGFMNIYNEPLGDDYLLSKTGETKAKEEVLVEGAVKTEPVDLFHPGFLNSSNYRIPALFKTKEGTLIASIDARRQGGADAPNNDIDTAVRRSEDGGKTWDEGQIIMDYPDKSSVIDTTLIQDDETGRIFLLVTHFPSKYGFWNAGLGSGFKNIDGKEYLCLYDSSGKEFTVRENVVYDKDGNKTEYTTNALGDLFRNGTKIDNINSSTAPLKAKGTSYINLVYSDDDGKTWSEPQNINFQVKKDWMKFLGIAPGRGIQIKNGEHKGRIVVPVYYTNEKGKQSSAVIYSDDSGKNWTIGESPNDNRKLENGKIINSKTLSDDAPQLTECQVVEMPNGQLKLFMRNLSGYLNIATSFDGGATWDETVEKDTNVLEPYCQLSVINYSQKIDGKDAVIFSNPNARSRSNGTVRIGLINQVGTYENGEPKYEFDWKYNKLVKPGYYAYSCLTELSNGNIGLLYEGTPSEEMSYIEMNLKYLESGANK

As to `O=c1c(O)c(-c2ccc(O)cc2)oc2cc(O)cc(O)c12` [Kaempferol], in assay [1], the inhibition at 50 µM worked out at 51.2 ± 6.1%. On to `O=c1c(O)c(-c2ccc(O)c(O)c2)oc2cc(O)cc(O)c12` [Quercetin], for which the inhibition at 50 µM in assay [1] worked out at 48.1 ± 3.4%. The same measure, in the same setting: the figure for `COc1ccc2c3c1O[C@H]1C[C@@H](O)C=C[C@@]31CCN(C)C2` [Galantamine, reference compound] is < 1%. For `O=C1CCC[C@@H]2[C@H]3CCC[N+]4([O-])CCC[C@@H](CN12)[C@@H]34` (some centres unmarked) [Oxymatrine], the inhibition at 50 µM in assay [1] is < 1%. Consider `O=c1c(O[C@@H]2O[C@H](CO)[C@H](O)[C@H](O)[C@H]2O)c(-c2ccc(O)c(O)c2)oc2cc(O)cc(O)c12` [Hyperoside], for which the inhibition at 50 µM in assay [1] is 32.3 ± 2.7%. As to `O[C@H]1[C@H]2c3cc4c(cc3CN3CCC(=C[C@@H]1O)[C@H]23)OCO4` [Lycorine], the inhibition at 50 µM in assay [1] was < 1%. For the same compound, the “binder / non-binder for NA” value in the assay on NA [2] is reported as “reported non-binders”.

Turning to `COc1ccc(-c2oc3cc(O)cc(O)c3c(=O)c2O)cc1` [Kaempferide], the inhibition at 50 µM in assay [1] was found to be 43.6 ± 4.9%. `O=c1cc(-c2ccc(O)c(O)c2)oc2cc(O[C@@H]3O[C@H](CO)[C@@H](O)[C@H](O)[C@H]3O)cc(O)c12` [luteolin-7-O-β-D-glucoside]: in assay [3], half-maximal inhibition (IC50) was put at 76.5 ± 3.9 µM. The “Retention on NA-MBs in ligand fishing” value in assay [4] is “retained until the final elution steps”.

As for `O=C1CCC[C@@H]2[C@H]3CCCN4CCC[C@@H](CN12)[C@@H]34` [matrine], in the assay with NA [2], the “binder / non-binder for NA” value is “reported non-binders”. As for `O=c1cc(-c2ccc(O)c(O)c2)oc2cc(O)cc(O)c12` [luteolin], in assay [4], the “Retention on NA-MBs in ligand fishing” value is on record as “retained until the final elution steps”. For the compound `COc1cc(-c2oc3cc(O)cc(O)c3c(=O)c2O)ccc1O` [Isorhamnetin], the inhibition at 50 µM in assay [1] stood at 46.8 ± 5.8%. With `Nc1cc[nH]c(=O)n1` [Cytosine], the inhibition at 50 µM in assay [1] was < 1%. Consider `O=C1CCC[C@@H]2[C@H]3CCC[N@+]4([O-])CCC[C@@H](CN12)[C@@H]34` [Ammothamnine], for which the “Inhibitory ratio (%)” value in assay [1] (50 μM tested compound, 40 μM MUNANA, 5 mg NA-MBs, 37 °C, 3 min, 3% DMSO) is recorded as < 1%. For `O=C(/C=C/c1ccc(O)c(O)c1)OC1CC(O)(C(=O)O)CC(OC(=O)/C=C/c2ccc(O)c(O)c2)C1O` (centres unmarked) [3,5-di-O-caffeoylquinic acid], half-maximal inhibition in assay [3] (IC50) was put at 61.2 ± 1.5 µM. Further, in assay [4], the “Retention on NA-MBs in ligand fishing” value is “retained until the final elution steps”. `CC(=O)N[C@H]1[C@H]([C@H](O)[C@H](O)CO)O[C@@](Oc2ccc3c(C)cc(=O)oc3c2)(C(=O)O)C[C@@H]1O` [MUNANA, 2′-(4-methylumbelliferyl)-α-D-N-acetylneuraminic acid sodium salt hydrate]: the results for the Michaelis-Menten constant (Km) (in assay [5]; with NA [2] (substrate on NA-immobilized capillary microreactor)) were 46.5 ± 3.68 µM and 137 ± 10.8 µM, respectively.

For the compound `Cc1c[nH]c(=O)[nH]c1=O` [Thymine], the inhibition at 50 µM in assay [1] was < 1%. As for `Nc1nc2c(ncn2[C@@H]2O[C@H](CO)[C@@H](O)[C@H]2O)c(=O)[nH]1` [Guanosine], the inhibition at 50 µM in assay [1] was < 1%. Regarding `O=C(/C=C/c1ccc(O)c(O)c1)OC1CC(O)(C(=O)O)CC(O)C1OC(=O)/C=C/c1ccc(O)c(O)c1` (centres unmarked) [3,4-di-O-caffeoylquinic acid], inhibition in assay [3] was half-maximal at 68.3 ± 3.1 µM (IC50). In assay [4], the “Retention on NA-MBs in ligand fishing” value is “retained until the final elution steps”. On to `CCOC(=O)C1=C[C@@H](OC(CC)CC)[C@H](NC(C)=O)[C@@H](N)C1` [Oseltamivir], for which, in assay [1], the inhibition at 50 µM worked out at 74.9 ± 3.5%. The “binder / non-binder for NA” value in the assay with NA [2] is reported as “known binder”. Further, in the assay on NA [6], the IC50 (usually the concentration that gives 50% inhibition) is […].
